Values of other authors in US20090325943A1, “VETERINARY PHARMACEUTICAL COMPOSITIONS FOR THE TREATMENT OF PAIN AND INFLAMMATION” (priority 2006, published 2009).

How the values were obtained:
[1] = dog, regardless of the administration route

## COc1cccc(C2(O)CCCCC2CN(C)C)c1 (stereo not shown) [tramadol]
6 animal species
  bond with the plasma proteins: modest
  peak plasma concentration (time to peak): ≤ 2 h
Administered by the i.m. route
  absorption: almost total
[1]
  half-life (elimination mainly by the renal route): approx. 2.5 hours
